US10160783B2, “Neuroactive 13, 17-substituted steroids as modulators for GABA type-A receptors” (priority 2013, dated 2018)
Read-outs that look alike come from different tables or passages of the source.

Legend:
[1] = target: T1, rat α1β2γ2L type GABAA receptors expressed in Xenopus laevis oocytes (Rattus norvegicus, UniProt P18508+P62813+P63138, INS375LLRMFSFK); assay: Potentiation of GABA-mediated chloride currents and direct gating, oocyte electrophysiology; format: cell-based; details: ± SEM, N ≥ 4; for oocyte electrophysiology 0.1 μM: ratio of currents measured in the presence/absence of added compound: 0.1 μM compound; for oocyte electrophysiology 0.1 μM: ratio of currents measured in the presence/absence of added compound / oocyte electrophysiology 1 μM: ratio of currents measured in the presence/absence of added compound / oocyte electrophysiology 10 μM: ratio of currents measured in the presence/absence of added compound: 2 μM GABA control response; for oocyte electrophysiology 1 μM: ratio of currents measured in the presence/absence of added compound: 1 μM compound; for oocyte electrophysiology 10 μM: ratio of currents measured in the presence/absence of added compound: 10 μM compound; for (gating) 10 μM: ratio of compound only current/2 μM GABA current: direct current gated by 10 μM compound in the absence of GABA
T1 construct: expressed in transfected cells; host or cells: Xenopus laevis oocytes
Experimental: The compounds of the present disclosure were evaluated for the ability to potentiate chloride currents mediated by 2 μM GABA at rat α1β2γ2L type GABAA receptors expressed in Xenopus laevis oocytes and the results are shown in Table 2.

[2] = target: picrotoxin binding site on GABAA receptors; assay: [35S]-TBPS displacement (inhibition of [35S]-TBPS binding); details: non-competitive displacement of [35S]-TBPS; ± SEM, duplicate experiments in triplicate
Experimental: The IC50 values for non-competitive displacers of [^35S]-TBPS from the picrotoxin binding site on GABAA receptors are reported in Table 1.
Results presented are from duplicate experiments performed in triplicate. Error limits are calculated as standard error of the mean. Methods used are known in the art (see Jiang, X., et al., Neurosteroid analogues. 9. Conformationally constrained pregnanes: structure-activity studies of 13,24-cyclo-18,21-dinorcholane analogues of the GABA modulatory and anesthetic steroids (3α,5α)- and […]. J. Med. Chem., 46: 5334-48 (2003)—the contents of which are hereby incorporated by reference in their entirety).

Tadpole = Tadpole loss of righting reflex (LRR) and loss of swimming reflex (LSR); format: in vivo; details: ± SEM
Experimental: Table 3 discloses the anesthetic effects of the compounds of the present disclosure. In particular, the anesthetic effect of the compounds of the present disclosure on Loss of Righting Reflex (LRR) and Loss of Swimming Reflex (LSR).
Methods used are known in the art (see Jiang, X., et al.). Error limits are calculated as standard error of the mean (N=10 or more animals at each of five or more different concentrations).

[3] = loss of righting reflex, read-out: Tadpole LRR EC50
[4] = loss of swimming reflex, read-out: Tadpole LSR EC50

T1 sequence (P62813 28-455, stated change not applied): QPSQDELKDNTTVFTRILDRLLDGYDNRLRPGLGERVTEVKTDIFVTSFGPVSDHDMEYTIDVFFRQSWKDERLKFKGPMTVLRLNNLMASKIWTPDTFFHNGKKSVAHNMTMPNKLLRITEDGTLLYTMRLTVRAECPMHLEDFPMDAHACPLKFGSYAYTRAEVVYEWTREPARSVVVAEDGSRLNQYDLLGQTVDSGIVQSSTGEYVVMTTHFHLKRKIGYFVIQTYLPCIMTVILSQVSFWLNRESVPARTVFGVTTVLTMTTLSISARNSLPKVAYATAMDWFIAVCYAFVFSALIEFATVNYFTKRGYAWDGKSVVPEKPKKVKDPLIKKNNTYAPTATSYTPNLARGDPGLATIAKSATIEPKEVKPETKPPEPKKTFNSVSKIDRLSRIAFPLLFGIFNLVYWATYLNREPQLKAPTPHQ
T1 sequence (P63138 26-474, stated change not applied): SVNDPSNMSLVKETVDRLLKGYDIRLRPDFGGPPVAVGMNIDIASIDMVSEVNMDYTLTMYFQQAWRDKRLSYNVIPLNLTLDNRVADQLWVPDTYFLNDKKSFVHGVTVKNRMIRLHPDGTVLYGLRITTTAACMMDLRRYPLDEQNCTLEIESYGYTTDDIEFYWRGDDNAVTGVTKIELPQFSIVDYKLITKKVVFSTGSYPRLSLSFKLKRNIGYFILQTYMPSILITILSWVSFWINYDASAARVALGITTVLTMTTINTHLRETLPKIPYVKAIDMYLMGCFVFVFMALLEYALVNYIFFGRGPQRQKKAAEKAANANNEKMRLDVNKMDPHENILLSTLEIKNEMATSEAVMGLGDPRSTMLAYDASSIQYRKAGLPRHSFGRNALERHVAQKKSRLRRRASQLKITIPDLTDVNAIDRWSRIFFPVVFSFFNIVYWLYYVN
T1 sequence (P18508 with tags, fused parts or gaps INS375LLRMFSFK): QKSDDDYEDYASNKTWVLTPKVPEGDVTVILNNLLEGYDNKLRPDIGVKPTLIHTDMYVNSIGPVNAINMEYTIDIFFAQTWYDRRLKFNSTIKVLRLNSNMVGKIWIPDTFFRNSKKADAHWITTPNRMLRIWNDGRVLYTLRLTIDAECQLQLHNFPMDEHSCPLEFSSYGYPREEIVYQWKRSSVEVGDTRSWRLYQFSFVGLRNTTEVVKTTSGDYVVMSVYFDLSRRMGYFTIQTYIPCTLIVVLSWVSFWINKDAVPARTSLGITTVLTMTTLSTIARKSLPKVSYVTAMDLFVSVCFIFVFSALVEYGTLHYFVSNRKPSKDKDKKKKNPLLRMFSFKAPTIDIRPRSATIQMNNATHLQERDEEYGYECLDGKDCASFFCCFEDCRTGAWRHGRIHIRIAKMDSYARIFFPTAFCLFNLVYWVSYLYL

SMILES | melting point [°C] | oocyte electrophysiology 0.1 μM: ratio of currents measured in the presence/absence of added compound [1] | oocyte electrophysiology 1 μM: ratio of currents measured in the presence/absence of added compound [1] | oocyte electrophysiology 10 μM: ratio of currents measured in the presence/absence of added compound [1] | (gating) 10 μM: ratio of compound only current/2 μM GABA current [1] | IC50 [2] [nM] | EC50 (Tadpole; [3]) [nM] | EC50 (Tadpole; [4]) [nM] | Tadpole LSR EC50 (μM) (Tadpole; loss of swimming reflex)
CC(=O)[C@]12CC[C@H]3[C@@H](CC[C@H]4C[C@H](O)CC[C@@]43C)[C@@H]1CC[C@@H]2[C@@H](C)O [ZYC-72, (3α,5α,20R)-13-Acetyl-18-norpregnane-3,20-diol] | 159 to 161 | 0.80 ± 0.08 | 1.30 ± 0.11 | 2.78 ± 0.37 | −0.03 ± 0.11 | 978 ± 618 | 3060 | > 10000 | –
C=C[C@H]1CC[C@H]2[C@@H]3CC[C@H]4C[C@H](O)[C@@H](OC)C[C@]4(C)[C@H]3CC[C@]12C(C)=O [KK-140, 1-[(2β,3α,5α)-3-Hydroxy-2-Methoxy-18-norpregn-20-en-13-yl]ethanone] | 155 to 157 | 5.39 ± 2.76 | 11.90 ± 1.08 | 17.29 ± 2.10 | 0.27 ± 0.06 | 17 ± 3 | 50 | 300 | –
CC(=O)[C@]12CC[C@H]3[C@@H](CC[C@H]4C[C@H](O)CC[C@@]43C)[C@@H]1CC[C@@H]2CCl [ZYC-74, 1-[(3α,5α,17β)-17-Chloromethy-3-hydroxy-18-norandrostan-13-yl]ethanone] | 161 to 162 | 1.06 ± 0.04 | 1.98 ± 0.21 | 9.38 ± 1.71 | 0.03 ± 0.01 | 415 ± 83 | 3330 ± 1410 | 5480 ± 200 | –
C=C[C@]12CC[C@H]3[C@@H](CC[C@H]4C[C@H](O)CC[C@@]43C)[C@@H]1CC[C@@H]2C(C)=O [ZYC-75] | 146 to 147 | – | – | – | – | – | 670 ± 10 | 2640 ± 10 | –
CC(=O)[C@H]1CC[C@H]2[C@@H]3CC[C@H]4C[C@H](O)CC[C@]4(C)[C@H]3CC[C@]12C(C)=O [ZYC-71, (3α,5α)-13-Acetyl-3-hydroxy-18-norpregnan-20-one] | 180 to 181 | 1.82 ± 0.03 | 9.31 ± 0.46 | 19.44 ± 1.69 | 0.22 ± 0.01 | 82 ± 7 | 1730 ± 10 | 5480 ± 150 | –
C=C[C@H]1CC[C@H]2[C@@H]3C[C@@H](OC)[C@H]4C[C@H](O)CC[C@]4(C)[C@H]3CC[C@]12C(C)=O [KK-143, 1-[(3α,5α,6β)-3-Hydroxy-6-methoxy-18-norpregn-20-en-13-yl]ethanone] | 158 to 160 | 1.23 ± 0.06 | 2.93 ± 0.30 | 8.43 ± 0.69 | 0.07 ± 0.02 | 270 ± 19 | 610 ± 60 | 1730 ± 30 | –
CC(=O)[C@]12CC[C@H]3[C@@H](CC[C@H]4C[C@H](O)CC[C@@]43C)[C@@H]1CC[C@@H]2CO [ZYC-73, 1-[(3α,5α,17β)-3-Hydroxy-17-hydroxymethyl-18-norandrostan-13-yl]ethanone] | 166 to 168 | 1.07 ± 0.15 | 1.42 ± 0.16 | 6.16 ± 0.71 | – | 1460 | > 10000 | – | None
C=C[C@H]1CC[C@H]2[C@@H]3CC[C@H]4C[C@H](O)CC[C@]4(C)[C@H]3[C@@H](OC)C[C@]12C(C)=O [KK-144, 1-[(3α,5α,11β)-3-Hydroxy-11-methoxy-18-norpregn-20-en-13-yl]ethanone] | 127 to 129 | 1.40 ± 0.11 | 5.38 ± 0.55 | 10.59 ± 1.31 | 0.18 ± 0.02 | 72 ± 16 | 180 ± 10 | 550 ± 10 | –
C=C[C@]12CC[C@H]3[C@@H](CC[C@H]4C[C@H](O)CC[C@@]43C)[C@@H]1CC[C@@H]2[C@@H](C)O [ZYC-76, (3α,5α,20R)-13-Ethenyl-18-norpregnan-3,20-diol] | 193 to 195 | 1.00 ± 0.01 | 1.56 ± 0.13 | 7.28 ± 1.76 | 0.04 ± 0.02 | 497 ± 59 | 742000 ± 202000 | 1740 ± 30 | –
CC[C@H]1CC[C@H]2[C@@H]3CC[C@H]4C[C@H](O)CC[C@]4(C)[C@H]3CC[C@]12C(C)=O [XJ-100, 1-[(3α,5α)-3-Hydroxy-18-norpregnan-13-yl]ethanone] | 182 to 184 | 1.33 ± 0.20 | 5.01 ± 0.89 | 8.41 ± 0.66 | −0.06 ± 0.06 | 276 ± 130 | 460 ± 160 | > 10000 | –
C=C[C@H]1CC[C@H]2[C@@H]3CC[C@H]4C[C@H](O)CC[C@]4(COC)[C@H]3CC[C@]12C(C)=O [KK-145, 1-[(3α,5α)-3-Hydroxy-19-methoxy-18-norpregn-20-en-13-yl]ethanone] | 124 to 126 | 1.75 ± 0.14 | 13.74 ± 3.71 | 35.57 ± 12.85 | 0.56 ± 0.07 | 53 ± 4 | 140 ± 10 | 550 ± 10 | –
C=C[C@H]1CC[C@H]2[C@@H]3CC[C@H]4C[C@H](O)CC[C@]4(C)[C@H]3CC[C@]12C(C)=O [XJ-99, 1-[(3α,5α)-3-Hydroxy-18-norpregn-20-en-13-yl]ethanone] | 178 to 179.5 | 1.73 ± 0.20 | 3.96 ± 0.99 | 4.37 ± 1.28 | 0.07 ± 0.02 | 43 ± 12 | 50 | 140 | –
